What was measured:
Human recombinant MMP-13 = biological target: T1, Human recombinant MMP-13 (Homo sapiens, UniProt P45452); experiment: In vitro MMP inhibition, IC50 determination (fluorogenic substrate I); type: biochemical
T1 construct: made in house; host or cells: baculovirus / insect cells
Experimental: (§1) Several hydroxamates and salts thereof were analyzed in in vitro assays to determine their ability to inhibit the MMP cleavage of peptide substrates. Inhibition (Ki) and IC50 constants were calculated from the assayed hydroxamate-MMP interactions.
(§2) Human recombinant MMP-1, MMP-2, MMP-9, MMP-13, and MMP-14 were used in this assay. All enzymes were prepared in Assignee's laboratories following usual laboratory procedures. Protocols for the preparation and use of these enzymes are available in the scientific literature. See, e.g., Enzyme Nomenclature (Academic Press, San Diego, Calif., 1992) (and the citations therein). See also, Frije et al., J. Biol. Chem., 26(24), 16766-73 (1994).
The expressed proenzyme was first purified over a heparin agarose column, and then over a chelating zinc chloride column. The proenzyme was then activated by APMA for use in the assay. Further details on baculovirus expression systems may be found in, for example, Luckow et al., J. Virol., 67, 4566-79 (1993). See also, O'Reilly et al, Baculovirus Expression Vectors: A Laboratory Manual (W. H. Freeman and Co., New York, N.Y., 1992). See also, King et al., The Baculovirus Expression System: A Laboratory Guide (Chapman & Hall, London, England, 1992).
(§3) All MMPs were activated using 4-aminophenylmercuric acetate (“APMA”, Sigma Chemical, St. Louis, Mo.) or trypsin. MMP-9 also was activated using human recombinant MMP-3 (purified in Assignee's laboratory following standard cloning and purification techniques).
(§4) Two fluorogenic, methoxycoumarin-containing polypeptide substrates were used in the MMP inhibition assays:
(§5) MCA-ProLeuGlyLeuDpaAlaArgNH2 (I)
(§6) Here, “Dpa” is 3-(2,4-dinitrophenyl)-L-2,3-diaminopropionyl group, and “MCA” is 7-methoxycoumarin-4-yl acetyl. Substrate (I) was purchased from Baychem (Redwood City, Calif.), and substrate II was prepared Assignee's laboratory. Substrate I was used in the IC50 determination assays, while substrate II was used in the Ki determination assays. In the absence of MMP inhibitory activity, either substrate is cleaved at the Gly-Leu peptide bond. This cleavage separates the highly fluorogenic peptide from the 2,4-dinitrophenyl quencher, thus resulting in increase of fluorescent intensity.
(§7) The stock solutions of the assayed hydroxamates (or salts thereof) were prepared in 1% dimethyl sulfoxide (DMSO). These stock solutions were diluted in Buffer A (100 mM Tris-HCl, 100 mM NaCl, 10 mM CaCl2, 0.05% polyoxyethylene 23 lauryl ether, pH 7.5) to obtain solutions with different hydroxamate concentrations, i.e., assay solutions with different concentrations of the assayed MMP inhibitory compound. The experiment controls contained the same amount of Buffer A/DMSO as the assayed sample, but contained no hydroxamate (or salt thereof).
(§8) The assays from which the IC50 determinations were made were performed as follows. The MMPs were activated with either trypsin or APMA (4-aminophenylmercuric acetate, Sigma Chemical, St. Louis, Mo.). The assayed hydroxamate samples were, incubated in Microfluorrm White Plates (Dynatech, Chantilly, VA) and analyzed on a Perkin Elmer L550 plate reader (Norwalk, Conn.). The excitation wavelength was 328 nm, and the emission wavelength—415 nm. All samples (assayed hydroxamates and controls) were incubated in separate plates at room temperature in the presence of 4 μM of MMP substrate (I). As stated in the previous paragraph, samples containing varying concentrations of the same assayed hydroxamate were prepared. Inhibition was measured as a reduction in fluorescent intensity as a function of MMP inhibitor concentration.

Human recombinant MMP-2 = biological target: T2, Human recombinant MMP-2 (Homo sapiens, UniProt P08253); experiment: as above; type: biochemical
T2 construct: made in house; host or cells: MMP-2-transfected p2AHT2 cells
T2 sequence (P08253 110-660): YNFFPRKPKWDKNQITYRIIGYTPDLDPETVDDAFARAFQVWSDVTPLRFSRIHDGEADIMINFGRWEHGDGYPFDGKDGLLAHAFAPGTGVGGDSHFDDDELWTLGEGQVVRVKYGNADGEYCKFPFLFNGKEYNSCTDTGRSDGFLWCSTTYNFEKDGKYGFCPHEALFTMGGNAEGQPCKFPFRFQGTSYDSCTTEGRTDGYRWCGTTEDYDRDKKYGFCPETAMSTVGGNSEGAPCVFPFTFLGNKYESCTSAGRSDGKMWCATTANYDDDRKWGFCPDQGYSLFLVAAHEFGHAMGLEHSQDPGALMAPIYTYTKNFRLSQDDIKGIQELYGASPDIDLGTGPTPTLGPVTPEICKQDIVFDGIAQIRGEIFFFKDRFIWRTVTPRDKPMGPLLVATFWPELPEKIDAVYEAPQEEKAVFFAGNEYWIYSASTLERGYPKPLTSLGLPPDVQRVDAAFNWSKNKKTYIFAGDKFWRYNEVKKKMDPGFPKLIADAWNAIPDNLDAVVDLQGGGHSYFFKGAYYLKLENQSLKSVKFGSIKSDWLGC
Experimental: as §1, §2
The MMP-2 proenzyme was purified by gelatin Sepharose chromatography from MMP-2-transfected p2AHT2 cells provided by Dr. Gregory Goldberg of Washington University (St. Louis, Mo.).
as §3, §4, §5, §6, §7, §8

[1] = value outside parentheses (Ki in parenthesis)

SMILES: COc1ccc2cc(O)c(C(=O)NCCCOc3ccc(S(=O)(=O)C4(C(=O)NO)CCOCC4)cc3)cc2c1 [Example 377]
- IC50 (Human recombinant MMP-13; [1]): 0.0059 µM
- IC50 (Human recombinant MMP-2; [1]): 1.27 µM

SMILES: COc1cc2c(cc1OC)C(c1ccccc1)NC(C(=O)OCCCCOc1ccc(S(=O)(=O)C3(C(=O)NO)CCOCC3)cc1)C2 (centres unmarked) [Example 336]
- IC50 (Human recombinant MMP-13; [1]): 0.0198 µM
- IC50 (Human recombinant MMP-2; [1]): 0.301 µM

SMILES: O=C(NCCCOc1ccc(S(=O)(=O)C2(C(=O)NO)CCOCC2)cc1)c1ccccn1 [Example 382]
- IC50 (Human recombinant MMP-13; [1]): 0.0017 µM
- IC50 (Human recombinant MMP-2; [1]): 0.059 µM

SMILES: Cn1cccc1C(=O)NCCCOc1ccc(S(=O)(=O)C2(C(=O)NO)CCOCC2)cc1 [Example 391]
- IC50 (Human recombinant MMP-13; [1]): 0.007 µM
- IC50 (Human recombinant MMP-2; [1]): 0.9 µM

SMILES: COc1ccc2cc(C(=O)NCCCOc3ccc(S(=O)(=O)C4(C(=O)NO)CCOCC4)cc3)ccc2c1 [Example 380]
- IC50 (Human recombinant MMP-13; [1]): 0.0002 µM
- IC50 (Human recombinant MMP-2; [1]): 0.45 µM

SMILES: CC(C)c1ccc(NC(=O)CCCOc2ccc(S(=O)(=O)C3(C(=O)NO)CCOCC3)cc2)cc1 [Example 227]
- IC50 (Human recombinant MMP-13; value outside parenthesis): 0.0002 µM
- IC50 (Human recombinant MMP-2; value outside parenthesis): 0.0027 µM

SMILES: O=C(NCCSc1ccc(S(=O)(=O)C2(C(=O)NO)CCOCC2)cc1)c1cc2ccccc2[nH]1 [Example 593]
- IC50 (Human recombinant MMP-13; value outside parentheses): 0.0156 µM
- IC50 (Human recombinant MMP-2; value outside parentheses): 0.0065 µM

SMILES: O=C(NCCCOc1ccc(S(=O)(=O)C2(C(=O)NO)CCOCC2)cc1)c1ccc([N+](=O)[O-])cc1 [Example 369]
- IC50 (Human recombinant MMP-13; [1]): 0.0015 µM
- IC50 (Human recombinant MMP-2; [1]): 0.155 µM

SMILES: CCCCOc1ccc(OCCCOc2ccc(S(=O)(=O)C3(C(=O)NO)CCOCC3)cc2)cc1 [Example 446]
- IC50 (Human recombinant MMP-13; [1]): 0.0066 µM
- IC50 (Human recombinant MMP-2; [1]): 0.076 µM

SMILES: O=C(NO)C1(S(=O)(=O)c2ccc(OCCCc3ccc(-c4ccccc4)cc3)cc2)CCOCC1 [Example 270]
- IC50 (Human recombinant MMP-13; value outside parenthesis): 0.0081 µM
- IC50 (Human recombinant MMP-2; value outside parenthesis): 0.522 µM

SMILES: CN(CCCOc1ccc(S(=O)(=O)C2(C(=O)NO)CCN(C3CC3)CC2)cc1)C(=O)C1C2CC3CC(C2)CC1C3 (centres unmarked) [Example 644]
- IC50 (Human recombinant MMP-13; value outside parentheses): 0.0209 µM
- IC50 (Human recombinant MMP-2; value outside parentheses): 2.63 µM

SMILES: CC(C)CCc1cccc(CCCOc2ccc(S(=O)(=O)C3(C(=O)NO)CCOCC3)cc2)c1 [Example 96]
- IC50 (Human recombinant MMP-13; value outside parenthesis): 0.0153 µM
- IC50 (Human recombinant MMP-2; value outside parenthesis): 0.0391 µM

SMILES: C[C@@H](COc1ccc(S(=O)(=O)C2(C(=O)NO)CCOCC2)cc1)NC(=O)c1ccc(N(C)C)cc1 [Example 395]
- IC50 (Human recombinant MMP-13; [1]): 0.305 µM
- IC50 (Human recombinant MMP-2; [1]): 6 µM

SMILES: O=C(Cc1nn[nH]n1)NCCOc1ccc(S(=O)(=O)C2(C(=O)NO)CCOCC2)cc1 [Example 564]
- IC50 (Human recombinant MMP-13; value outside parentheses): 0.0194 µM
- IC50 (Human recombinant MMP-2; value outside parentheses): 0.145 µM

SMILES: COCCN1CCC(C(=O)NO)(S(=O)(=O)c2ccc(OCCCn3nnc(-c4ccccc4C)n3)cc2)CC1 [Example 151]
- IC50 (Human recombinant MMP-13; value outside parenthesis): 0.0026 µM
- IC50 (Human recombinant MMP-2; value outside parenthesis): 0.0384 µM

SMILES: CCOCC(C)(C)COc1ccc(S(=O)(=O)C2(C(=O)NO)CCOCC2)cc1 [Example 456]
- IC50 (Human recombinant MMP-13; [1]): 0.35 µM
- IC50 (Human recombinant MMP-2; [1]): 0.425 µM

SMILES: CCCC(C)(C)C(=O)NCCCOc1ccc(S(=O)(=O)C2(C(=O)NO)CCOCC2)cc1 [Example 402]
- IC50 (Human recombinant MMP-13; [1]): 0.03 µM
- IC50 (Human recombinant MMP-2; [1]): 0.454 µM

SMILES: COc1ccc(S(=O)(=O)NCCCOc2ccc(S(=O)(=O)C3(C(=O)NO)CCOCC3)cc2)cc1 [Example 419]
- IC50 (Human recombinant MMP-13; [1]): 0.004 µM
- IC50 (Human recombinant MMP-2; [1]): 0.12 µM

SMILES: CC(C)c1cccc(CCCOc2ccc(S(=O)(=O)C3(C(=O)NO)CCOCC3)cc2)c1 [Example 94]
- IC50 (Human recombinant MMP-13; value outside parenthesis): 0.0037 µM
- IC50 (Human recombinant MMP-2; value outside parenthesis): 0.0178 µM

Reference: patent US20040024024A1, “Aromatic sulfone hydroxamates and their use as protease inhibitors” (priority 2001, published 2004)
